Test results published in US11076594B2, “Pyrazolone compound or salt thereof, preparation method therefor, herbicide composition and use thereof” (QINGDAO KINGAGROOT CHEMICAL COMPOUNDS CO., LTD., priority 2015, dated 2021).

Columns and labels:
Format in all cases: in vivo
Conditions in all cases: post-emergence spray at 4-5 leaf stage, 250 g/ha active ingredient with 450 kg/ha water, rated after 3 weeks in greenhouse
Indian mallow = experiment: weed control effect in post-emergence stage (Table 1); set-up: key: Level 10: completely dead; Level 9: above 95% growth control rate; Level 8: above 90% growth control rate; Level 7: above 80% growth control rate; Level 6: above 70% growth control rate; Level 5: above 60% growth control rate; Level 4: above 50% growth control rate; Level 3: above 20% growth control rate; Level 2: 5%-20% growth control rate; Level 1: below 5% growth control rate
Description: (§1) The activity level standard of harmful plant destruction (i.e. growth control rate) is as follows: The above described growth control rate is fresh weight control rate. Monocotyledonous and dicotyledonous weed seeds and main crop seeds (i.e. wheat, corn, rice, soybean, cotton, oilseed, millet and sorghum.) were put into a plastic pot loaded with soil. Then covered with 0.5-2 cm soil, the seeds were allowed to grow in good greenhouse environment. The test plants were treated at 4-5 leaf stage 2-3 weeks after sowing. The test compounds of the invention were dissolved with acetone respectively, then added with 80 tween and diluted by certain amount of water to certain concentration. The solution was sprayed to the plants with a sprayer. Then the plants were cultured for 3 weeks in the greenhouse.

rorippa indica = experiment: as above; set-up: key: Level 10: completely dead; Level 9: above 95% growth control rate; Level 8: above 90% growth control rate; Level 7: above 80% growth control rate; Level 6: above 70% growth control rate; Level 5: above 60% growth control rate; Level 4: above 50% growth control rate; Level 3: above 20% growth control rate; Level 2: 5%-20% growth control rate; Level 1: below 5% growth control rate
Description: as §1

foxtail = experiment: as above; set-up: key: Level 10: completely dead; Level 9: above 95% growth control rate; Level 8: above 90% growth control rate; Level 7: above 80% growth control rate; Level 6: above 70% growth control rate; Level 5: above 60% growth control rate; Level 4: above 50% growth control rate; Level 3: above 20% growth control rate; Level 2: 5%-20% growth control rate; Level 1: below 5% growth control rate
Description: as §1

bidens bipinnata = experiment: as above; set-up: key: Level 10: completely dead; Level 9: above 95% growth control rate; Level 8: above 90% growth control rate; Level 7: above 80% growth control rate; Level 6: above 70% growth control rate; Level 5: above 60% growth control rate; Level 4: above 50% growth control rate; Level 3: above 20% growth control rate; Level 2: 5%-20% growth control rate; Level 1: below 5% growth control rate
Description: as §1

echinochloa = experiment: as above; set-up: key: Level 10: completely dead; Level 9: above 95% growth control rate; Level 8: above 90% growth control rate; Level 7: above 80% growth control rate; Level 6: above 70% growth control rate; Level 5: above 60% growth control rate; Level 4: above 50% growth control rate; Level 3: above 20% growth control rate; Level 2: 5%-20% growth control rate; Level 1: below 5% growth control rate
Description: as §1

crab grass = experiment: as above; set-up: key: Level 10: completely dead; Level 9: above 95% growth control rate; Level 8: above 90% growth control rate; Level 7: above 80% growth control rate; Level 6: above 70% growth control rate; Level 5: above 60% growth control rate; Level 4: above 50% growth control rate; Level 3: above 20% growth control rate; Level 2: 5%-20% growth control rate; Level 1: below 5% growth control rate
Description: as §1

rice = experiment: post-emergence stage experiment, crop (Table 1); set-up: key: Level 10: completely dead; Level 9: above 95% growth control rate; Level 8: above 90% growth control rate; Level 7: above 80% growth control rate; Level 6: above 70% growth control rate; Level 5: above 60% growth control rate; Level 4: above 50% growth control rate; Level 3: above 20% growth control rate; Level 2: 5%-20% growth control rate; Level 1: below 5% growth control rate
Description: as §1

corn = experiment: post-emergence stage experiment, crop (Table 1)
Description: as §1

wheat = experiment: post-emergence stage experiment, crop (Table 1)
Description: as §1

Structure (SMILES) | weed control effect, Indian mallow (level) (Indian mallow) | weed control effect, Rorippa indica (level) (rorippa indica) | weed control effect, Green foxtail (level) (foxtail) | weed control effect, Bidens bipinnata (level) (bidens bipinnata) | weed control effect, Echinochloa (level) (echinochloa) | weed control effect, Crab grass (level) (crab grass) | effect on crop, Rice (level) (rice) | effect on crop, Corn (level) (corn) | effect on crop, Wheat (level) (wheat)
CCn1nc(C)c(C(=O)c2ccc(C(F)(F)F)c(N3CCCCCC3=O)c2Cl)c1O [Compound 118] | 0 | 5 (Level 5: above 60% growth control rate) | 10 | 1 (Level 1: below 5% growth control rate) | 9 (Level 9: above 95% growth control rate) | 1 (Level 1: below 5% growth control rate) | 1 (Level 1: below 5% growth control rate) | 2 (Level 2: 5%-20% growth control rate) | 1 (Level 1: below 5% growth control rate)
Cn1ncc(C(=O)c2ccc(C(F)(F)F)c(-n3cccn3)c2Cl)c1O [Compound 064] | 10 | 9 (Level 9: above 95% growth control rate) | 10 | 7 (Level 7: above 80% growth control rate) | 5 (Level 5: above 60% growth control rate) | 7 (Level 7: above 80% growth control rate) | 2 (Level 2: 5%-20% growth control rate) | 7 (Level 7: above 80% growth control rate) | 3 (Level 3: above 20% growth control rate)
CCc1nn(CC)c(O)c1C(=O)c1ccc(C(F)(F)F)c(-n2cccn2)c1Cl [Compound 132] | 5 (Level 5: above 60% growth control rate) | 0 | 10 | 5 (Level 5: above 60% growth control rate) | 9 (Level 9: above 95% growth control rate) | 3 (Level 3: above 20% growth control rate) | 5 (Level 5: above 60% growth control rate) | 0 | 1 (Level 1: below 5% growth control rate)
CCn1ncc(C(=O)c2ccc(C(F)(F)F)c(N3CCCC3=O)c2Cl)c1OC(=O)c1cn(C)nc1C [Compound 097] | 10 | 10 | 10 | 10 | 10 | 3 (Level 3: above 20% growth control rate) | 7 (Level 7: above 80% growth control rate) | 1 (Level 1: below 5% growth control rate) | 1 (Level 1: below 5% growth control rate)
CCc1nn(C)c(O)c1C(=O)c1ccc(C(F)(F)F)c(N2CCCC2=O)c1Cl [Compound 100] | 9 (Level 9: above 95% growth control rate) | 10 | 10 | 9 (Level 9: above 95% growth control rate) | 10 | 3 (Level 3: above 20% growth control rate) | 10 | 2 (Level 2: 5%-20% growth control rate) | 2 (Level 2: 5%-20% growth control rate)
CCc1nn(CC)c(O)c1C(=O)c1ccc(C(F)(F)F)c(-n2cc(C)cn2)c1Cl [Compound 142] | 5 (Level 5: above 60% growth control rate) | 3 (Level 3: above 20% growth control rate) | 6 (Level 6: above 70% growth control rate) | 5 (Level 5: above 60% growth control rate) | 10 | 2 (Level 2: 5%-20% growth control rate) | 7 (Level 7: above 80% growth control rate) | 3 (Level 3: above 20% growth control rate) | 2 (Level 2: 5%-20% growth control rate)
CCn1nc(C2CC2)c(C(=O)c2ccc(C(F)(F)F)c(N3CCCCCC3=O)c2Cl)c1OC(=O)c1cn(C)nc1C [Compound 125] | 10 | 4 (Level 4: above 50% growth control rate) | 10 | 10 | 8 (Level 8: above 90% growth control rate) | 10 | 10 | 5 (Level 5: above 60% growth control rate) | 2 (Level 2: 5%-20% growth control rate)
Cn1cc(C(=O)Oc2c(C(=O)c3ccc(C(F)(F)F)c(-n4cccn4)c3Cl)cnn2C)cn1 [Compound 066] | 10 | – | 10 | 6 (Level 6: above 70% growth control rate) | 6 (Level 6: above 70% growth control rate) | 6 (Level 6: above 70% growth control rate) | 3 (Level 3: above 20% growth control rate) | 3 (Level 3: above 20% growth control rate) | 0
Cc1cnn(-c2c(C(F)(F)F)ccc(C(=O)c3c(C4CC4)nn(C)c3OC(=O)c3cnn(C)c3)c2Cl)c1 [Compound 091] | 10 | – | 7 (Level 7: above 80% growth control rate) | 5 (Level 5: above 60% growth control rate) | 6 (Level 6: above 70% growth control rate) | 2 (Level 2: 5%-20% growth control rate) | 6 (Level 6: above 70% growth control rate) | 1 (Level 1: below 5% growth control rate) | 1 (Level 1: below 5% growth control rate)
Cn1cc(C(=O)Oc2c(C(=O)c3ccc(C(F)(F)F)c(N4CCCC4=O)c3Cl)cnn2C)cn1 [Compound 017] | 10 | – | 10 | 5 (Level 5: above 60% growth control rate) | 6 (Level 6: above 70% growth control rate) | 10 | 7 (Level 7: above 80% growth control rate) | 4 (Level 4: above 50% growth control rate) | 1 (Level 1: below 5% growth control rate)
Cc1nn(C)c(OC(=O)c2cnn(C)c2)c1C(=O)c1ccc(C(F)(F)F)c(N2CCCCC2=O)c1Cl [Compound 039] | 10 | 10 | 10 | 2 (Level 2: 5%-20% growth control rate) | 10 | 9 (Level 9: above 95% growth control rate) | 6 (Level 6: above 70% growth control rate) | 2 (Level 2: 5%-20% growth control rate) | –
